Test results taken from US20090074885A1, “Reversible Hydrophobic Modification of Drugs for Improved Delivery to Cells” (Roche Madison Inc., priority 2003, published 2009).
Where two headings read alike, the source gives them in different places.

Columns and labels:
[1] = tested on: Hepa 1-6 (mouse hepatoma); test: WST cytotoxicity assay, Hepa 1-6; format: cell-based; conditions: for IC50: Hepa 1-6, 4 min drug exposure, read-out: Mean IC50
Method: Antiproliferative/Cytotoxic in vitro studies on PI, RRH-PI prodrugs, melphalan, and C12PMMA-melphalan. In vitro cytotoxicity testing was conducted on Hepa 1-6 (mouse hepatoma), SK-OV-3 (human ovarian carcinoma), and MC38 (mouse colon carcinoma) cells using a tetrazolium based assay (WST, Dojindo Molecular Technologies). For the WST assay, Hepa 1-6 (2.0×10^5 cells well), SK-OV-3 (7.5×10^5 cells well), and MC38 (8.5×10^5 cells well) were seeded in 1000 μL media into 12-well plates 24 h prior to testing (starting confluency ˜50%). Following removal of media, drug/prodrug solution was added drop-wise to quadruplicate wells, using the mixing chamber. Effective drug concentrations were calculated from the amount of drug added in the total volume of OS and aqueous solution. Following 4 min of drug solution exposure, the solution was removed, and 1000 μl fresh complete media was added to each well. After the cells were incubated for 24-48 h, WST-1 (20 μl of a 5 mM solution in PBS) and N-methylphenazonium methyl sulfate (PMS, 20 μl 0.2 mM solution in PBS) were added and the cells were incubated for 1-4 h. For testing with MC38 cells, the amounts of WST-1 and PMS were doubled. Following incubation, 100 μl of sample was transferred to quadruplicate wells on a 96-well plate, and the absorbance (438 nm) values were measured on a SPECTRAmax Plus^384 microplate spectrophotometer (Molecular Devices Corporation). Data represents the mean A438 values of 16 wells with standard deviation, corrected for media contribution, and normalized against cells in media with no drug/prodrug treatment (reported as % cell viability±standard deviation).
The concentration of drug (μM) that is required for 50% inhibition in vitro is reported as the IC50. The reported values were calculated from the best fit line (Excel) for a plot of effective drug concentration against % cell viability, and include the r^2 value. The reported IC50 values for multiple RRH-PI plots are reported as IC50 (μM)±standard deviation.

hepatocytes = test: Uptake by hepatocytes in vivo after intraportal injection (occluded blood flow); parameters: species or system mouse; conditions: normal liver, portal vein injection; for cells (hepatocytes) PI positive: 0.300 μmol
Method: Uptake of BDMODS-PI by hepatocytes in vivo. Intraportal injections were conducted in order to target hepatocytes. For the injections, both the portal vein and the celiac artery were clamped to occlude blood flow into the liver. The vena cava was not clamped in order to avoid increased pressure within the liver during the injection procedure. The blood in the liver was flushed out with 1 ml of ITG delivered through the portal vein (1 min). 0.300 μmol PI or II in 40 μl of DMF was then delivered together with 400 μl ITG via the mixing chamber. 5 min after injection the livers were perfused with 3 ml of ITG to flush any drug remaining in the vasculature, and livers were sectioned as above or the hepatocytes were isolated. Slides were prepared from the resulting hepatocyte isolations for examination by fluorescent microscopy (Axioplan2 fluorescent microscope in the fluorescein fluorescent channel (λex=BP 546/90, λem=LP 515 nm filter set) due to signal intensity, magnification=400×, Zeiss) by placing a drop of the cell suspension (about 20 μl) on a clean glass slide and preparing a cell smear. Random fields were examined, and the number of positive cells was counted out of a total of 200 cells in order to determine the percentage of PI positive cells in the sample.
The amount of PI retained in hepatocytes was also quantitated following intraportal injections of PI and II. The isolated hepatocyte cell suspensions were dissolved in 0.5% octyl glycoside in 10 mM HEPES buffer, pH 7.5. Nucleic acid was then isolated from cell suspensions (0.5 ml) using phenol extraction. PI fluorescence spectra were monitored (Shimadzu RF 1501 Spectrophotometer) using an excitation wavelength of 530 nm and an emission wavelength of 617 nm. All spectra were background subtracted using the fluorescence of cell suspensions from untreated animals. PI calibration curves were generated by mixing increasing amounts of PI in each of the samples. […] The amount of PI uptake was then calculated according to the equation: Amt(%)=100×PIs/PIi, where PIs is the amount of PI in the cell suspension and PIi is the amount of PI or BDMOD-PI injected (corrected for the sample size relative to the total liver).

[2] = tested on: SK-OV-3 peritoneal tumors; test: Direct application / IP injection in mouse model of disseminated peritoneal ovarian cancer; format: in vivo, nude mice; conditions: two weeks after SK-OV-3 inoculation, direct application or IP injection
Method: BDMODS-PI and C12PMMA-PI show enhanced drug uptake by surface tissue and microtumors following IP and intraperitoneal perfusion chemotherapy (IPPC) application in a mouse tumor model. For establishment of the cancer model, 2×10^6 SK-OV-3 cells were injected IP into nude mice. The mice were examined at two weeks following cell inoculation, or at the first manifestation of ascites (about 4-5 wks). Tissue samples were fixed in 10% NBF, routinely processed, stained with H&E stain, and subjected to histopathological analysis. […] At 4-5 weeks after SK-OV-3 cell inoculation, maximum tumor size increased to 5-7 mm with the bulk of cancer development present as about 0.1 to about 1 mm microtumors (FIG. 9). At 5 wks most peritoneal surfaces were affected by growing cancer cells, coating both the visceral and parietal peritoneum, e.g. liver, pancreas, and diaphragm. […]
Two weeks following cell inoculation, the abdominal cavity was opened and the drug mixture was directly applied on the duodenum and ovary/uterus/fallopian tubes (220 μL of drug-OS/ITG over 30 sec). […] Cellular uptake of the prodrug was stronger at the surface of the metastases, but also readily detectable in the middle of the small tumors (tumor size about 0.5 to about 1 mm; FIG. 7-8). […]

SMILES: CC[N+](C)(CC)CCC[n+]1c(-c2ccccc2)c2cc(N)ccc2c2ccc(N)cc21.[I-].[I-] [PI, Propidium iodide, reference compound]
- IC50 ([1]; WST 24 h after): > 1250 µM
- IC50 ([1]; WST 48 h after): > 1700 µM
- injected PI bound to hepatocyte nucleic acid (hepatocytes): 1.2%
- cells (hepatocytes) PI positive (hepatocytes): approximately 1%

SMILES: CCCCCCCCCCCCNC(=O)CCC(=CCC(=O)O)C(=O)Nc1ccc2c(c1)c(-c1ccccc1)[n+](CCC[N+](C)(CC)CC)c1cc(NC(=O)C(=CCC(=O)O)CCC(=O)NCCCCCCCCCCCC)ccc21.[I-].[I-] [III, 3,8-bis-[2-(2 carboxyethylidene)-4-(dodecarbamoyl)-1-oxo-butylamine] 5-(3,3-diethyl-3-methylammoniumpropyl) 6-phenyl phenanthridinium diiodide]
- labeling of peritoneal tumors [2]: intensely labeled

SMILES: CCCCCCCCCCCCCCCCCC[Si](C)(C)Nc1ccc2c(c1)c(-c1ccccc1)[n+](CCC[N+](C)(CC)CC)c1cc(N[Si](C)(C)CCCCCCCCCCCCCCCCCC)ccc21.[I-].[I-] [II, 3,8-bis[((dimethyl)octadecylsilazyl)amine] 5-(3,3-diethyl-3-methylammoniumpropyl) 6-phenyl phenanthridinium diiodide]
- cell viability at highest concentration tested, prodrug premixed with ITG (10 min) ([1]; Hepa 1-6, 833 μM): 108±1.3%
- IC50 ([1]; WST 24 h after): 282 µM
- IC50 ([1]; WST 48 h after): 334 µM
- labeling of peritoneal tumors [2]: intensely labeled
- injected PI bound to hepatocyte nucleic acid (hepatocytes): 14%
- cells (hepatocytes) PI positive (hepatocytes): approximately 70%
